In article PMC2737470 (Circulation research, 2009):

How the values were obtained:
[1] = biological target: carboxyl terminal domain of Cx43 (Cx43CT), recombinant; assay: SPR
[2] = system: N2a cell pairs expressing Cx43; assay: Patch clamp, octanol-induced uncoupling of Cx43 channels; assay type: cell-based
recombinant Cx43CT = assay: NMR 15N-HSQC of Cx43CT titrated with peptide; assay type: binding; details: Cx43CT titrated with peptide to 1:500 and 1:900 molar ratio
[3] = system: carboxyl terminal domain of Cx43 (Cx43CT); assay: Surface plasmon resonance, peptide binding to immobilised Cx43CT; details: molecular weight-normalized responses, same sensor chip
recombinant Cx40CT = assay: Surface plasmon resonance with recombinant Cx40CT; assay type: binding; details: Online Figure IV
[4] = system: N2a cells expressing Cx40; assay: Patch clamp, octanol-induced uncoupling of Cx40 channels; assay type: cell-based; details: N2a cells expressing Cx40, peptide in pipette

CyRP-71 (cyclo-RRPPYRQ as printed in Table 1) (peptide)
SPR response amplitude normalized by molecular weight [1]: 33.9 a.u.

Cyclo-RRPPYQ (head to tail) [CyRP-62]
cells remaining coupled after ten minutes of octanol superfusion ([2]; peptide 100 μM in patch pipette): 100%

Cyclo-RRPPYRQ (head to tail) [CyRP-71]
interaction with Cx43CT by 15N-HSQC resonance shifts (in words) (recombinant Cx43CT): confirm the binding of Cx43CT to CyRP-71
SPR response relative to CyRP-62 (times higher) [3]: 9 times
SPR response with Cx40CT (in words) (recombinant Cx40CT): only a minor SPR deflection
effect on time course of octanol-induced uncoupling in Cx40 (in words) [4]: did not modify the time course

RRNYRRNY
cell pairs in which the peptide failed to prevent uncoupling ([2]; octanol-induced uncoupling, peptide in pipette): approximately 40%
cell pairs remaining coupled at the end of octanol exposure (number of pairs) ([2]; peptide in patch pipette (100 μM), 10 minutes of octanol): four of the six

B1: CyRP-62 (cyclo-RRPPYQ) (peptide)
peptide: RRPPYQ
modifications: backbone-cyclized (cyclo-, Q6 joined to R1)
SPR response amplitude normalized by molecular weight (125 μM) [1]: 3.71 a.u.
